Experimental data taken from patent US11744898B2, “Multi-arm polymer conjugates of TLR agonist compounds and related immunotherapeutic treatment methods” (Nektar Therapeutics, priority 2017, dated 2023).
Read-outs that look alike come from different tables or passages of the source.

Legend:
[1] = tested on: proinflammatory cytokines IFNα, IFNγ, TNFα, IL-6 and IL-12; test: Plasma cytokine induction after Compound 6 or resiquimod with staggered RSLAIL-2 in CT26 model; type: in vivo, Balb/c mice
Method: The concentration of proinflammatory cytokines IFNα, IFNγ, TNFα, IL-6 and IL-12 was determined in plasma by multiplex protein measurement assay at indicated time points post dose.

[2] = tested on: TLR7 pathway; settings: 2 hours and 6 hours following treatment with Compound 6
Method: Cytokine analysis (in CT26 tumor-bearing mice): Tumor and plasma samples were obtained at multiple time points following administration for cytokine analysis. RNA was isolated from treated tumors to assess induction of type I interferon- and NFκB-dependent gene expression. A panel of pro-inflammatory cytokines was measured from tumor tissue and plasma by multiplex protein measurement assay.

[3] = tested on: bilateral CT26 subcutaneous tumors
[4] = tested on: TLR7/8; test: TLR7/8-dependent cytokine production in plasma after single 10 μg intratumoral administration, CT26 tumor bearing mice; type: in vivo, Balb/c mice
Method: Hank's Balanced Salt Solution) was administered intratumorally to Balb/c mice bearing CT26 tumor. […] (Conjugate doses and concentrations are expressed based on TLR 7/8 agonist (e.g., resiquimod or other TLR 7/8 agonist) content, wherein the mass of the TLR 7/8 agonist is expressed independent of PEG mass). Plasma was collected at pre-determined time points for analysis of level of IFN-gamma, IL-2, IL-4, IL5, IL-6, IL-1 beta, IL-10, IL-12p70, KC/GRO, TNF-alpha, and IFN-alpha. For assessing IFN-gamma, IL-2, IL-4, IL5, IL-6, IL-1 beta, IL-10, IL-12p70, KC/GRO, and TNF alpha, an electrochemiluminescence assay was performed on duplicate samples using capture antibody precoated 96 well multispot plates from Meso Scale Discovery (MSD; Gaithersburg, Md., US). […] Plates were immediately read using SECTOR Imager 2400 and data was quantitated using Discovery Workbench software version 4.0 (MSD, Gaithersburg, Md., US). Mouse IFN alpha was measured with the Verikine mouse Interferon-Alpha ELISA kit (PBL, Piscataway, N.J., USA), according to the instructions of the manufacturer. After the addition of a stop solution, the absorbance at 450 nm was determined using BioTek μQuant microplate reader (Biotek; Winooski, Vt., USA). The ELISA data was quantitated using Biotek Gen5 software (Biotek; Winooski, Vt., USA). Data are represented as the mean of the fold-change of replicates.

[5] = target: T1, hTLR7 (Homo sapiens, UniProt Q9NYK1); test: SEAP reporter gene assay in HEK293 cells stably transfected with human TLR receptor; type: cell-based; settings: downstream hTLR7 and hTLR8
T1 construct: expressed in transfected cells; host or cells: HEK293
T1 sequence (Q9NYK1 27-1049): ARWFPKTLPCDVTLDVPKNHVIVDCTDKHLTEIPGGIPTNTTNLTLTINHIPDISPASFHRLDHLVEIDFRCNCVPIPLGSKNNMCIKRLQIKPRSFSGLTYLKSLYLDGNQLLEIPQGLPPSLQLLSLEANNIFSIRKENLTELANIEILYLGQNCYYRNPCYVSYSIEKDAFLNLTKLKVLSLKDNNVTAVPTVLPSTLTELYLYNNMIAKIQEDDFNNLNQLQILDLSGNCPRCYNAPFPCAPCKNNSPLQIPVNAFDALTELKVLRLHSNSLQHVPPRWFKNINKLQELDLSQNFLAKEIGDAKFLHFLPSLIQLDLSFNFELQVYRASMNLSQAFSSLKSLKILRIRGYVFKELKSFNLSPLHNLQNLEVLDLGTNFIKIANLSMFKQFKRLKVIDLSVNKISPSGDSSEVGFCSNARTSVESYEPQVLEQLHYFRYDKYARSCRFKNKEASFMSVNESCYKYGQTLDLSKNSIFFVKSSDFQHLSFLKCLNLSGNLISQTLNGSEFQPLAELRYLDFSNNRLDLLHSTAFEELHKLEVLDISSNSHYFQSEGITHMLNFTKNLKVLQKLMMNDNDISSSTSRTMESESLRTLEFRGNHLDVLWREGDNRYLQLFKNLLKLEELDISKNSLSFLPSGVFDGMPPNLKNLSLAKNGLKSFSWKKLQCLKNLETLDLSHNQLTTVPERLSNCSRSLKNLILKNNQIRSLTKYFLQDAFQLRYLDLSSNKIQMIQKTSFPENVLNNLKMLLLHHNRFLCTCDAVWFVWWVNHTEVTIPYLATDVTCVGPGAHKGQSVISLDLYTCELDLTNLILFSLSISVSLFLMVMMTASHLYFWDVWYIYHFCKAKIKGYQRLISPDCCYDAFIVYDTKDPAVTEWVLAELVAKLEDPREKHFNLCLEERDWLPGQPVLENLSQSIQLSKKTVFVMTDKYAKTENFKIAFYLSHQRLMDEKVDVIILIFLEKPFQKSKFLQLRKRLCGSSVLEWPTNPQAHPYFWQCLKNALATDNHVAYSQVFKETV
Excerpt: Parental cell lines (Null1 and Null1K, stably transfected with the SEAP reports but without hTLR receptor expression) were used as negative controls.

[6] = tested on: EMT6 tumor cells
Excerpt: In vivo model: Mice used were ˜10 weeks old female Balb/c strain with 2 million EMT6 tumor cells implanted on each flank. Cells were allowed to mature into tumors for 7 days reaching a volume of 75-150 mm^3 volume.
Measurements: Tumor volumes were collected by caliper measurements 2-3 times per week and calculated using formula: L×W^2/2 where L is tumor length and W is tumor width.

[7] = plasma, 10 μg intra/peritumoral
[8] = 2 hours after single 10 μg intratumoral administration
[9] = 6 hours after single 10 μg intratumoral administration

Q: How did the “induction of cytokines in plasma, in words” value ([1]; 1 μg single intra/peritumoral dose) turn out when “4-arm-PEG20k-CM-glycine-N-R848 [Compound 6]” was run?
A: The value was “very modest induction of all cytokines in plasma”.

Q: What about the “pro-inflammatory cytokine induction in blood, in words” value ([1]; 10 μg single intra/peritumoral dose) of the same substance?
A: Its value is “robust pro-inflammatory cytokine induction in blood”.

Q: What about the “time of peak level of IFN-γ” value [1, 7] of the same substance?
A: The value was 6 h.

Q: And the “time of peak levels of IFNα, TNFα, IL-6 and IL-12” value [1, 7]?
A: Its value is 2 h.

Q: And the “concentration of systemic cytokines compared with tumor (IL-6, KC/GRO, TNF-α, IL-1β, IL-5, IFN-α, IFN-γ, IL-2, IL-12p70)” value [2]?
A: The value was “significantly less than that in the tumor”.

Q: What about the “CD8+ T cells in tumors” value ([3]; after combination treatment with RSLAIL-2 (0.8 mg/kg i.v. four days after Compound 6), day 7) of the same substance?
A: The value was “selective Compound 6-dose dependent increase”.

Q: What about the “relative fraction of regulatory T cells in tumors” value ([3]; after combination treatment with RSLAIL-2, day 7) of the same substance?
A: Its value is “decreased dramatically”.

Q: And the “CD8:Treg ratio in the blood” value ([3]; both treatment groups (10 μg or 0.1 μg) after RSLAIL-2)?
A: The value was “overall reduction”.

Q: And the “intratumoral neutrophils in treated tumors” value ([3]; one day after treatment, 10 μg dose)?
A: Its value is “increase in intratumoral neutrophils”.

Q: What about the “IFNa fold change (treated/vehicle)” value [4, 8] of the same substance?
A: The value was “+ (+<50)”.

Q: And the “IL6 fold change (treated/vehicle)” value [4, 8]?
A: The value was “++ (50≤++<200)”.

Q: And the “IL12 fold change (treated/vehicle)” value [4, 8]?
A: Its value is “+ (+<50)”.

Q: What about the “KC/GRO fold change (treated/vehicle)” value [4, 8] of the same substance?
A: Its value is “+ (+<50)”.

Q: What about the “TNFa fold change (treated/vehicle)” value [4, 8] of the same substance?
A: Its value is “+ (+<50)”.

Q: What about the “IFNg fold change (treated/vehicle)” value [4, 9] of the same substance?
A: Its value is “+++ (10≤+++<20)”.

Q: What about the “IL10 fold change (treated/vehicle)” value [4, 9] of the same substance?
A: The value was “+ (+<5)”.

Q: What about the “fold higher concentration for reporter activation compared to resiquimod” value [5] of the same substance?
A: Its value is greater than 20 fold.

Q: And the “Survival Proportions” value ([6]; day 0 after treatment start)?
A: The value was “++++ (75%≤++++<100%)”.

Q: What about the “Survival Proportions” value ([6]; day 3 after treatment start) of the same substance?
A: The value was “++++ (75%≤++++<100%)”.

Q: And the “Survival Proportions” value ([6]; day 8 after treatment start)?
A: The value was “++++ (75%≤++++<100%)”.

Q: What about the “Survival Proportions” value ([6]; day 13 after treatment start) of the same substance?
A: The value was “++++ (75%≤++++<100%)”.

Q: What about the “Survival Proportions” value ([6]; day 15 after treatment start) of the same substance?
A: The value was “++++ (75%≤++++<100%)”.

Q: And the “Survival Proportions” value ([6]; day 20 after treatment start)?
A: The value was “+++ (50%≤+++<75%)”.

Q: What about the “Survival Proportions” value ([6]; day 27 after treatment start) of the same substance?
A: Its value is “++ (25%≤++<50%)”.

Q: What about the “Survival Proportions” value ([6]; day 34 after treatment start) of the same substance?
A: Its value is “+ (0%≤+<25%)”.

Q: And the “Survival Proportions” value ([6]; day 42 after treatment start)?
A: The value was “+ (0%≤+<25%)”.

Q: And the “Survival Proportions” value ([6]; day 48 after treatment start)?
A: The value was “+ (0%≤+<25%)”.

Q: And the “Survival Proportions” value ([6]; day 55 after treatment start)?
A: The value was “none”.

Q: What about the “survival of the animals” value ([6]; end of the study at day 55 after commencement of dosing) of the same substance?
A: Its value is “no surviving animals”.
